Reference: patent publication US9527819B2, “Pyridazine compounds, compositions and methods” (NORTHWESTERN UNIVERSITY, priority 2004, dated 2016)

Assays:
[1] = molecular target: hERG (Homo sapiens, UniProt Q12809); test: hERG competition binding assay (3H-astemizole); conditions: HEK-293 cells stably expressing recombinant hERG channels, probe 3H-astemizole
Excerpt: The initial assay is a radioligand binding assay that tests the ability of the test compound to compete with ^3H-astemizole (a reference standard that binds to hERG channels with nM affinity) for binding to recombinant hERG channels stably expressed on human HEK-293 cells. […] This is usual for medium throughout screens but is not recommended in the FDA document and tends to give false positives, as evidenced by the results reported below.

[2] = tested on: anesthetized guinea pigs; test: Cardiac QT interval prolongation assay; type: in vivo, guinea pig; conditions: PO 15 mg/kg
Procedure: The QT interval studies are performed by evaluating compounds for effects on QT interval in Lead II electrocardiograms measured in anesthetized guinea pigs (Hirohashi et al., 1991), one of the species recommended in the FDA white paper. Vehicle or compound is administered orally at 15 mg/kg (dosing volume of 10 ml/kg) to groups of male guinea pigs (weighing 330-350 g), with 5 animals per group. […] Heart rate, arterial blood pressure, and QT intervals are measured at baseline, and at 15, 30, 45, and 60 min after compound administration. Sotalol administered iv at 0.3 mg/kg serves as the positive control compound. The QT intervals are corrected for changes in heart rate using both Bazett's and Fridericia's formulae. Any increase in QT interval values over baseline values exceeding the upper 95% confidence limit of the mean changes at the corresponding time point in the vehicle-treated control group for two consecutive observation times indicates significant QT interval prolongation in the individually treated animals.

[3] = tested on: activated glia; test: Western blots of iNOS, COX-2, apoE production in activated glia cultures; type: cell-based; conditions: 7.5 μM, western blot
Procedure: Cultures were treated with control buffer, C, or activated in the absence, A, or presence, A+188, of 7.5 μMW01-5-188WH. […] Bar=125 μm. […] A schematic of the experimental paradigm is shown. […] Bars=25 μm. […] Quantification of amyloid burden from all mice (n=5/group) was done by determination of the amyloid load. Data are mean±SEM. […] (C) Spontaneous alternation of mice in the Y-maze, a hippocampus-dependent spatial learning task, was measured for 10 days during the 7th and 8th week after the start of Aβ infusion. Data are mean±SEM of n=5 or 10 per group.

[4] = tested on: BV-2 mouse microglial cells; test: LPS-stimulated proinflammatory cytokine production in BV-2 microglial cell culture assay; type: cell-based; conditions: for IL-1β production / TNFα production: LPS 100 ng/ml, 16 hrs, levels in cell lysates
Procedure: EL-1/3 and TNFa levels in cell lysates were determined by electro-chemiluminescent detection in a Meso-Scale Discovery (MSD) kit, as per the manufacturer's instructions.
Data are the mean+/− SEM of triplicate determinations.

[5] = tested on: Aβ-infused mice (hippocampus); test: Human Aβ infusion mouse model of neuroinflammation and neuronal injury; type: in vivo
Excerpt: Briefly, oligomeric […] was infused ICV for 28 days with a micro-osmotic pump. […] At post-operative day 60, mice were perfused and sacrificed, and hippocampal endpoints measured as previously described. Endpoint assays included immunohistochemical detection of activated astrocytes and microglia by glial fibrillary acidic protein (GFAP) and F4/80 staining, measurement of the levels of the pro-inflammatory cytokines IL-1|S, TNFa, and S100B by ELISA, and determination of synaptic damage by analysis of the levels of postsynaptic density protein-95 (PSD-95). […] Cultures were treated with control buffer, C, or activated in the absence, A, or presence, A+188, of 7.5 μMW01-5-188WH. […] Bar=125 μm. […] A schematic of the experimental paradigm is shown. […] Bars=25 μm. […] Quantification of amyloid burden from all mice (n=5/group) was done by determination of the amyloid load. Data are mean±SEM. […] (C) Spontaneous alternation of mice in the Y-maze, a hippocampus-dependent spatial learning task, was measured for 10 days during the 7th and 8th week after the start of Aβ infusion. Data are mean±SEM of n=5 or 10 per group.

[6] = molecular target: T1, hERG K+ channel (Homo sapiens, UniProt Q12809); test: hERG channel activity patch clamp inhibition assay; type: cell-based; conditions: three concentrations (0.1, 1, 10 μM), whole cell patch clamp
T1 construct: MDS PharmaService (commercial assay service)
Excerpt: The hERG channel activity inhibition assay provides whole cell electrophysiological data about compound effects on the hERG K^+ channel function. Whole cell patch clamp methodology is generally considered to be the gold-standard determination of ion channel activity, rather than simply measuring channel binding. The standard testing procedure is to use 3 to 5 concentrations of compound at log dilutions with each concentration tested in triplicate (three cells). This allows a balance between achieving a reasonably accurate IC50 measurement against a broad concentration range, and reducing cell attrition that would occur during more protracted experiment durations. After completion of compound dose-response procedures, a known hERG channel inhibitor, such as astemizole, is applied as a positive control.

[7] = Stability in liver microsomes; type: in vitro ADME, rat; conditions: 1 μM, NADPH-regenerating system, 37° C.
Excerpt: The HPLC system (Dionex Corp., Sunnyvale, Calif.) includes a Dionex […] pump, a Phenomenex Luna.

[8] = Oral administration / brain uptake assay; conditions: mouse, in vivo
Procedure: At various times (0-60 min) after administration, mice were sacrificed, blood removed by cardiac puncture, and brains immediately harvested, weighed, quick-frozen in liquid nitrogen, and stored at −80° C. until assayed. Brain tissue was homogenized in 1.5 ml of 0.1 M perchloric acid. After centrifugation (12,000×g for 10 min), the supernatant was neutralized, with 1 M NaOH and then extracted three times with 2 ml of dichloromethane by centrifugation at 3,000×g for 5 min. The organic phases from the three successive extractions were pooled and then vaporated to dryness under reduced pressure. The dried sample was reconstituted in 100 ul of HPLC mobile phase (80% acetonitrile, 0.08% formic acid, 20% H2O), and 20 μl of the reconstituted material was injected into the HPLC system. […] A standard curve of the test compound was prepared by adding increasing concentrations of the compound to brain, tissue from untreated mice, then extracting the brains and performing HPLC analysis as described above. The area under the curve increased linearly with the concentration of the compound over the range of concentrations investigated, with a correlation coefficient of 0.99.

hERG, sequence (Q12809 whole entry): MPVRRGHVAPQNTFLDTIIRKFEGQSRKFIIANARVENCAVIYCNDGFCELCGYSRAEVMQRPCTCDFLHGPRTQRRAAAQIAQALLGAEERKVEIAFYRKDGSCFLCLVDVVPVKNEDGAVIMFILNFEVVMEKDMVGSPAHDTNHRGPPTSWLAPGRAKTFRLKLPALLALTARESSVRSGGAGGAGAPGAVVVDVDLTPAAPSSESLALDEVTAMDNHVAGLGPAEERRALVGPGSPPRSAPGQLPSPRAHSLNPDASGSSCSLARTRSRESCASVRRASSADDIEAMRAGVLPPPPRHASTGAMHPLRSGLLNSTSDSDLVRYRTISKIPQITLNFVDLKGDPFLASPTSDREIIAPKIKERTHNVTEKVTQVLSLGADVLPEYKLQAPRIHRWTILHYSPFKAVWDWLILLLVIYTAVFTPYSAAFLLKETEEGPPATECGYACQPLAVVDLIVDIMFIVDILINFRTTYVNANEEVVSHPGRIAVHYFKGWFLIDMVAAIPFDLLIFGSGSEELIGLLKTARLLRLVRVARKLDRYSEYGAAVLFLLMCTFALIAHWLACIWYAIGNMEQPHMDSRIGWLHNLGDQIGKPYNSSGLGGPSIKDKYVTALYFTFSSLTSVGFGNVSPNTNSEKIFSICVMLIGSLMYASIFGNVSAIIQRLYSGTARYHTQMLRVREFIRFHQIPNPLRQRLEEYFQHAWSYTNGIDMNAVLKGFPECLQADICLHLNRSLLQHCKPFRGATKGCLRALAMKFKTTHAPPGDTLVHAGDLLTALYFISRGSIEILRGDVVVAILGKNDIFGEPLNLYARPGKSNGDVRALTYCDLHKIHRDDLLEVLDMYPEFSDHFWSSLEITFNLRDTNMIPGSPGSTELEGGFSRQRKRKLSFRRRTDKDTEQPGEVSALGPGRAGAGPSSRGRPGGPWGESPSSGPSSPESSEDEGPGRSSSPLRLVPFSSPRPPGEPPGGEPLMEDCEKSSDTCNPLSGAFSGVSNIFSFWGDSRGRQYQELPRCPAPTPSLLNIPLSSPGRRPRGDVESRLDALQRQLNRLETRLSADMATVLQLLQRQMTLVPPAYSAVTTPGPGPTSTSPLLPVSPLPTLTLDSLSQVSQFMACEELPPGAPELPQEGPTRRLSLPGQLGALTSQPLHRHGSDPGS
T1 sequence (Q12809 whole entry): as above

SMILES	inhibition at 10 µM [1]	heart rate [2]	mean blood pressure [2]	IL-1β production [4]	TNFα production [4]	IC50 [6]	also measured
c1ccc(-c2cc(-c3ccccc3)c(N3CCN(c4ncccn4)CC3)nn2)cc1 [MW01-5-188WH, 4,6-diphenyl-3-(4-pyrimidin-2-ylpiperazin-1-yl)pyridazine]	91%	no significant effects	no significant effects	concentration-dependent inhibition	concentration-dependent inhibition	–	COX-2 production [3]: does not suppress; apoE production [3]: does not suppress; iNOS production [3]: does not suppress; Accumulation of the NO metabolite, nitrite ([4]; concentrations up to 33 μM): not inhibited; number of F4/80 positive microglia in the hippocampus ([5]; daily oral […] for 2 weeks): decreased
c1ccc(-c2cc(-c3ccncc3)c(N3CCN(c4ncccn4)CC3)nn2)cc1 [MW01-6-189WH, 4-pyridyl-6-phenyl-3-(4-pyrimidin-2-ylpiperazin-1-yl)pyridazine]	–	–	–	–	–	4.81 µM	–
c1ccc(-c2ccc(N3CCN(c4ncccn4)CC3)nn2)cc1 [MW01-3-183WH, 2-(4-(6-phenylpyridazin-3-yl)piperazin-1-yl)pyrimidine]	–	–	–	suppressed both IL-1β and TNFα production in a concentration dependent manner	suppressed both IL-1β and TNFα production in a concentration dependent manner	–	–
Cc1cc(-c2ccccc2)nnc1N1CCN(c2ncccn2)CC1 [MW01-2-151SRM, 4-methyl-6-phenyl-3-(4-pyrimidin-2-ylpiperazin-1-yl)pyridazine]	8%	no significant effects	no significant effects	suppress IL-1β in a concentration dependent manner	–	9.21 µM	stability in microsomes [7]: demonstrated; cardiac QT interval ([2]; baseline, 15, 30, 45, 60 min, vs mean+2 SD of vehicle control): Neither compound increased; activated glia responses [4]: selective suppressor; oral availability [8]: orally available; efficacy in the mouse model of human Aβ-induced neuroinflammation and neuronal injury ([5]; mouse, in vivo): showed efficacy; inflammatory response endpoints outside the brain ([5]; mouse, in vivo): did not suppress
Clc1cc(-c2ccccc2)nnc1N1CCN(c2ncccn2)CC1 [MW01-6-127WH, 4-chloro-6-phenyl-3-(4-pyrimidin-2-ylpiperazin-1-yl)pyridazine]	19%	–	–	–	–	–	–
